The text below walks through data of BindingDB's records for doi:10.1021/jm980621r (Ligand Pharmaceuticals, 1999).

Experiment [1] addresses T1, Retinoic acid receptor RXR-alpha (Homo sapiens, UniProt P19793).
T1 sequence (P19793 whole entry): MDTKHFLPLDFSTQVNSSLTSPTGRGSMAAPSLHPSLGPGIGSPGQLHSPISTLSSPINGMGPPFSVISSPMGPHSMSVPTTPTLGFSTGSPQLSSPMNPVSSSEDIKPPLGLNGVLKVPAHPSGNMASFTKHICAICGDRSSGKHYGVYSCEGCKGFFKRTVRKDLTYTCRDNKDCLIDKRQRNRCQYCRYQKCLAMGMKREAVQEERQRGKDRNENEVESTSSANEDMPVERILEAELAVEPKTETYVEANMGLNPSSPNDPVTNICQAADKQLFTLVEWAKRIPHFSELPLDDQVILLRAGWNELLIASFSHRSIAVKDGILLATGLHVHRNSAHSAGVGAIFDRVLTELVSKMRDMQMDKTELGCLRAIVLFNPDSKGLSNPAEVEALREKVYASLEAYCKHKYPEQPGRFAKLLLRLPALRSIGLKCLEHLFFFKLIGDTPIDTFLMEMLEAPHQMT
The experiment is described as follows: Transcriptional activity was evaluated in CV-1 cells transfected with expression vector for Retinoic acid receptor RXR-alpha.

For experiment [2], the target named is T2, Retinoic acid receptor RXR-gamma (Homo sapiens, UniProt P48443).
T2 sequence (P48443 whole entry): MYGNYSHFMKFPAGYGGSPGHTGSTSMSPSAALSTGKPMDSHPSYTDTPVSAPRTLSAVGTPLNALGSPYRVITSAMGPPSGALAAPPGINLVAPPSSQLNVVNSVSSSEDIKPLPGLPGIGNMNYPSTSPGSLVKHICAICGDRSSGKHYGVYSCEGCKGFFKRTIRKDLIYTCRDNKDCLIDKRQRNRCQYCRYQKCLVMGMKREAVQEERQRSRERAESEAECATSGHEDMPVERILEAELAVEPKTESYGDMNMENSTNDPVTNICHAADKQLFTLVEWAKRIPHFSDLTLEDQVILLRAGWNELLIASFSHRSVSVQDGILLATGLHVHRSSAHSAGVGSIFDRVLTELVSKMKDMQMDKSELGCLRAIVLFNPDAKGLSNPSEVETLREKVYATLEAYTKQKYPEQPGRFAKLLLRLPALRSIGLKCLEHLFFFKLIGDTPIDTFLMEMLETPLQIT
Nature of the experiment: Transcriptional activity was evaluated in CV-1 cells transfected with expression vector for Retinoic acid receptor RXR-gamma.

The target in experiment [3] is T3, Retinoic acid receptor RXR-beta (Homo sapiens, UniProt P28702).
T3 sequence (P28702 whole entry): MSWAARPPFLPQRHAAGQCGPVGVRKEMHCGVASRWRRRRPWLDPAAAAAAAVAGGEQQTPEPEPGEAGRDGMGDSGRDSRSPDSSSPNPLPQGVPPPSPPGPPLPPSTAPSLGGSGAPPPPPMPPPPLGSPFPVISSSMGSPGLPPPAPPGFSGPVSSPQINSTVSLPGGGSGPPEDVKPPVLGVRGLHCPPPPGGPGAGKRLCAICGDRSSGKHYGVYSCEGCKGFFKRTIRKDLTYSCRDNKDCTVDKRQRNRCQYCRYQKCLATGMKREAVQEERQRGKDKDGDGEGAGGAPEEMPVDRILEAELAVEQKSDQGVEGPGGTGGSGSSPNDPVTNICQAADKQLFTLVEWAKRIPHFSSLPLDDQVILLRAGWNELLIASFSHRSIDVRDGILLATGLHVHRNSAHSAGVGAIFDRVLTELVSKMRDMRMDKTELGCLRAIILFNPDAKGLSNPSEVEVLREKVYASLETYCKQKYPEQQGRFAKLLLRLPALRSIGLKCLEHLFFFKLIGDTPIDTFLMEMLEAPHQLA
Nature of the experiment: Transcriptional activity was evaluated in CV-1 cells transfected with expression vector for Retinoic acid receptor RXR-beta.

Experiment [4] deals with T3, Retinoic acid receptor RXR-beta. The experiment is described as follows: Binding affinity towards recombinantly expressed Retinoic acid receptor RXR-beta in baculoviral system, by using 5 nM [3H]targretin in a competitive binding assay.

Regarding `CCO/N=C(/c1ccc(C(=O)O)cc1)c1cc2c(cc1C)C(C)(C)CCC2(C)C`, the EC50 in experiment [1] turned out to be 46 nM; in experiment [2] it was 34 nM; in experiment [3], 165 nM. For the same molecule, in experiment [4], the inhibition constant Ki was determined as 120 nM.

What is called EC50 is the concentration at which the effect is half-maximal. A lower EC50 goes with a more potent agent. What is called Ki is the equilibrium dissociation constant of an inhibitor or competing ligand from its target.
